{
  "source": "patent US11186585B2",
  "about": "(priority 2018, dated 2021)",
  "key": {"Sprague-Dawley rats": {"tested_on": "Sprague-Dawley rats", "assay": "Antinociceptive activity, cold ethanol tail-flick test after oral gavage", "assay_type": "in vivo, rat", "details": "oral gavage in sesame oil, 60 uM/kg, one dose; tail-flick at −20° C., cutoff 40 seconds"}, "healthy volunteers [1]": {"tested_on": "healthy volunteers", "assay": "Double-blind trial, heat pain threshold (hot water at 50° C.) after oral capsule", "assay_type": "in vivo, human", "details": "oral, individual data, 33 45 mg, NB 35 mg, 39 68 mg", "experimental": "Double-blind, NB hydrochloride and NB-39 controlled, trial of the antinociceptive effect of oral NB-33 in healthy volunteers. […] Each week a healthy volunteer would receive a pill from the assigned set in a random fashion and take it orally. […]\n(§1) Following one week of a wash out period, each volunteer repeated the protocol until all pills from the assigned set were administered. The individual data for heat pain threshold as % MPE=[(test latency−baseline latency)/(baseline latency)]×100 and for miosis as % MPE=[(test diameter−baseline diameter)/(baseline diameter)]×100 are shown in Table 2 and Table 3 respectively.\n(§2) Independent samples t-test was used to compare the means of % MPE analgesia and miosis in the two pairs of samples: NB-33 and NB and NB-33 and NB-39. All analyses were made using SPSS (v.25). • Bold indicates statistical significance at α=0.05"}, "healthy volunteers [2]": {"tested_on": "healthy volunteers", "assay": "Double-blind trial, miosis after oral capsule", "assay_type": "in vivo, human", "details": "oral, individual data, 33 45 mg, NB 35 mg, 39 68 mg", "experimental": "Double-blind, NB hydrochloride and NB-39 controlled, trial of the antinociceptive effect of oral NB-33 in healthy volunteers. Each of the three healthy volunteers was assigned a set of 6 non-transparent gelatin capsules as follows: 2×NB hydrochloride (MW=393.4; 39 mg), 2×NB-33 (MW=451.6; 45 mg) and 2×NB-39 (MW=680.0; 68 mg). Each week a healthy volunteer would receive a pill from the assigned set in a random fashion and take it orally. At T=0 hr, 0.25 hr, 0.5 hr, 1 hr, 1.5 hr, 2 hr, 3 hr and 5 hr followed oral administration a heat pain threshold was measured (hot water at 50° C.) as well as miosis.\nas §1, §2"}, "[3]": {"details": "in vivo; cited from earlier work"}},
  "note": "Values joined by “and” are separate entries in the source; they are usually repeats but may differ in a detail not shown here. Equal entries are not always repeated.",
  "data": [
    {"smiles": "Oc1ccc2c3c1OC1C(O)CCC4(O)C(C2)N(CC2CCC2)CCC314", "note": "(centres unmarked) [NB, 3-(cyclobutylmethyl)-1,2,3,4,5,6,7,7a-octahydro-4aH-4,12-methanobenzofuro[3,2-e]isoquinoline-4a,7,9-triol]", "values": [
      {"measurement": "Analgesia (rat)", "setting": "Sprague-Dawley rats", "value": "moderate"},
      {"measurement": "% MPE (analgesia)", "setting": "healthy volunteers [1]; 0 hr (baseline)", "value": 0.0, "unit": "% MPE"},
      {"measurement": "% MPE (analgesia)", "setting": "healthy volunteers [1]; 0.25 hr", "value": "0.0 % MPE and 29.5 % MPE and 5.3 % MPE (2×) and 56.3 % MPE and 21.4 % MPE"},
      {"measurement": "% MPE (analgesia)", "setting": "healthy volunteers [1]; 0.5 hr", "value": "5.6 % MPE and 39.3 % MPE and 10.5 % MPE and 50.0 % MPE and 21.1 % MPE and 35.7 % MPE"},
      {"measurement": "% MPE (analgesia)", "setting": "healthy volunteers [1]; 1 hr", "value": "50.0 % MPE and 34.4 % MPE and 42.1 % MPE and 87.5 % MPE and 47.4 % MPE and 57.1 % MPE"},
      {"measurement": "% MPE (analgesia)", "setting": "healthy volunteers [1]; 1.5 hr", "value": "100.0 % MPE and 54.1 % MPE and 68.4 % MPE and 112.5 % MPE and 73.7 % MPE and 78.6 % MPE"},
      {"measurement": "% MPE (analgesia)", "setting": "healthy volunteers [1]; 2 hr", "value": "94.4 % MPE and 54.1 % MPE and 94.7 % MPE and 162.5 % MPE and 57.9 % MPE and 50.0 % MPE"},
      {"measurement": "% MPE (analgesia)", "setting": "healthy volunteers [1]; 2.5 hr", "value": "66.7 % MPE and 82.0 % MPE and 57.9 % MPE and 106.3 % MPE and 36.8 % MPE and 35.7 % MPE"},
      {"measurement": "% MPE (analgesia)", "setting": "healthy volunteers [1]; 3 hr", "value": "22.2 % MPE and 32.8 % MPE and 68.4 % MPE and 37.5 % MPE and 57.9 % MPE and 0.0 % MPE"},
      {"measurement": "% MPE (analgesia)", "setting": "healthy volunteers [1]; 5 hr", "value": "−5.6 % MPE and 27.9 % MPE and 5.3 % MPE (2×) and 26.7 % MPE and 0.0 % MPE"},
      {"measurement": "% MPE (miosis)", "setting": "healthy volunteers [2]; 0 hr (baseline)", "value": 0.0, "unit": "% MPE"},
      {"measurement": "% MPE (miosis)", "setting": "healthy volunteers [2]; 0.25 hr", "value": "3.1 % MPE and 9.4 % MPE and 6.7 % MPE and 0.0 % MPE and 3.2 % MPE and 2.9 % MPE"},
      {"measurement": "% MPE (miosis)", "setting": "healthy volunteers [2]; 0.5 hr", "value": "9.4 % MPE (2×) and 37.5 % MPE and 0.0 % MPE and 9.7 % MPE and 8.8 % MPE"},
      {"measurement": "% MPE (miosis)", "setting": "healthy volunteers [2]; 1 hr", "value": "21.9 % MPE (2×) and 46.9 % MPE and 6.7 % MPE and 45.2 % MPE and −2.9 % MPE"},
      {"measurement": "% MPE (miosis)", "setting": "healthy volunteers [2]; 1.5 hr", "value": "17.2 % MPE (2×) and 65.6 % MPE and 25.0 % MPE and 45.2 % MPE and 29.4 % MPE"},
      {"measurement": "% MPE (miosis)", "setting": "healthy volunteers [2]; 2 hr", "value": "18.8 % MPE and 31.3 % MPE (2×) and 55.6 % MPE and 58.1 % MPE and 11.8 % MPE"},
      {"measurement": "% MPE (miosis)", "setting": "healthy volunteers [2]; 2.5 hr", "value": "18.8 % MPE and 3.1 % MPE and 50.0 % MPE and 25.0 % MPE and 25.8 % MPE and 26.5 % MPE"},
      {"measurement": "% MPE (miosis)", "setting": "healthy volunteers [2]; 3 hr", "value": "6.2 % MPE (2×) and 33.3 % MPE and 21.9 % MPE and 16.1 % MPE and 20.6 % MPE"},
      {"measurement": "% MPE (miosis)", "setting": "healthy volunteers [2]; 5 hr", "value": "6.2 % MPE (2×) and 3.1 % MPE and 22.2 % MPE and 9.7 % MPE and 7.8 % MPE"},
      {"measurement": "oral bioavailability", "setting": "[3]", "value": "low"}
    ]}
  ]
}
